Laboratory results taken from the kinase profiling compilation of Christmann-Franck et al. (2016).
Values joined by “and” are separate entries in the source; they are usually repeats but may differ in a detail not shown here. Equal entries are not always repeated.

What was measured:
Assay in all cases: KINOMEscan competition binding
Details in all cases: compound 10.0 µM
[1] = target: BLK (human) (UniProt P51451)
[2] = target: BMPR1A (human) (UniProt P36894)
[3] = target: BMPR1B (human) (UniProt O00238)
[4] = target: BMPR2 (human) (UniProt Q13873)
[5] = target: BRSK1 (human) (UniProt Q8TDC3)
[6] = target: BRSK2 (human) (UniProt Q8IWQ3)
[7] = target: CAMK1D (human) (UniProt Q8IU85)
[8] = target: CDK14 (human) (UniProt O94921)
[9] = target: CDK15 (human) (UniProt Q96Q40)
[10] = target: CDK5 (human) (UniProt Q00535)
[11] = target: CDK7 (human) (UniProt P50613)
[12] = target: CDK9 (human) (UniProt P50750)
[13] = target: DCLK1 (human) (UniProt O15075)
[14] = target: FGFR2 (human) (UniProt P21802)
[15] = target: FLT3 (human) (UniProt P36888)
[16] = system: FLT3 (human), P36888 [ITD]
[17] = target: GSK3B (human) (UniProt P49841)
[18] = target: IKBKE (human) (UniProt Q14164)
[19] = target: JAK1 JH1 catalytic (human) (UniProt P23458)
[20] = target: LATS1 (human) (UniProt O95835)
[21] = target: LIMK1 (human) (UniProt P53667)
[22] = target: LYN (human) (UniProt P07948)
[23] = target: MAP3K7 (human) (UniProt O43318)
[24] = target: MAP3K9 (human) (UniProt P80192)
[25] = target: MAP4K1 (human) (UniProt Q92918)
[26] = target: MAPK9 (human) (UniProt P45984)
[27] = target: MARK3 (human) (UniProt P27448)
[28] = target: NEK2 (human) (UniProt P51955)
[29] = target: NTRK3 (human) (UniProt Q16288)
[30] = target: PIK3CB (human) (UniProt P42338)
[31] = target: PLK1 (human) (UniProt P53350)
[32] = target: PRKD3 (human) (UniProt O94806)
[33] = target: RPS6KA3 KD1 (human) (UniProt P51812)
[34] = target: RPS6KA5 KD1 (human) (UniProt O75582)
[35] = target: STK11 (human) (UniProt Q15831)
[36] = target: STK16 (human) (UniProt O75716)
[37] = target: STK4 (human) (UniProt Q13043)
[38] = target: TSSK1B (human) (UniProt Q9BXA7)
[39] = target: TYK2 JH2 pseudokinase (human) (UniProt P29597)
[40] = target: YES1 (human) (UniProt P07947)

Chain of FLT3 (human) (P36888 whole entry, looked up): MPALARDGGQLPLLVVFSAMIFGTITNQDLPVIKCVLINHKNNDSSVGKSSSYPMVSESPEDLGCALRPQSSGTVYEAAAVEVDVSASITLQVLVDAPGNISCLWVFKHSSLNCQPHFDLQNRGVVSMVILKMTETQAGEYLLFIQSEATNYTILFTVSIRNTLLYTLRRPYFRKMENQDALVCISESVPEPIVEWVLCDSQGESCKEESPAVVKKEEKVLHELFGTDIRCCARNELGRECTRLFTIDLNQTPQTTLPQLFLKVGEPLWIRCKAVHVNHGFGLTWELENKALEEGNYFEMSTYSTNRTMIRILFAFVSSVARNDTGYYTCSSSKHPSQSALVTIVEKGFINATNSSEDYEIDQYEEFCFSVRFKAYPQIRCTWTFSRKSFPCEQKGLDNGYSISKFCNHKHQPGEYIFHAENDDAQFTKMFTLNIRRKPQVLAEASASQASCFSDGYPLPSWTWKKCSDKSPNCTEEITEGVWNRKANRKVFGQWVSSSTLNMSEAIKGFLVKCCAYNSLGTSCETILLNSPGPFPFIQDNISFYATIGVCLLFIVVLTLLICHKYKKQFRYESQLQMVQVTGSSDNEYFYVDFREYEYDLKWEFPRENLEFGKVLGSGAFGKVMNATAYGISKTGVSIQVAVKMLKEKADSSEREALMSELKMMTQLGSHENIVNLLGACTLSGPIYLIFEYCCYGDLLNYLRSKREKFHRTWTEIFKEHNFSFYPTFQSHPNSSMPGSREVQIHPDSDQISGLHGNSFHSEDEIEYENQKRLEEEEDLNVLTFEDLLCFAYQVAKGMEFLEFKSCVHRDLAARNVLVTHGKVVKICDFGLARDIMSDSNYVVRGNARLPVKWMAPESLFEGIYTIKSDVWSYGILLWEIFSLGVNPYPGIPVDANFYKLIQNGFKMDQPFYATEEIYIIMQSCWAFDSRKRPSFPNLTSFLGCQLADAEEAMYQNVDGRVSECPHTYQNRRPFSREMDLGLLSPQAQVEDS
Chain of STK16 (human) (O75716 whole entry, looked up): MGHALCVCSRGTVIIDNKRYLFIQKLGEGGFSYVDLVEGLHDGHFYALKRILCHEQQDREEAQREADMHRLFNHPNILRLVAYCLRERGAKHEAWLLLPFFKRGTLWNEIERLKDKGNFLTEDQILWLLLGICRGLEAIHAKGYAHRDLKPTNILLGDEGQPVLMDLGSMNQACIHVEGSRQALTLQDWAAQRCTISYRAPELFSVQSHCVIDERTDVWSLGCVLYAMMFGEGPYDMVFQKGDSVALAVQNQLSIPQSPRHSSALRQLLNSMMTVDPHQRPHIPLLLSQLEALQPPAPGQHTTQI
Chain of STK4 (human) (Q13043 whole entry, looked up): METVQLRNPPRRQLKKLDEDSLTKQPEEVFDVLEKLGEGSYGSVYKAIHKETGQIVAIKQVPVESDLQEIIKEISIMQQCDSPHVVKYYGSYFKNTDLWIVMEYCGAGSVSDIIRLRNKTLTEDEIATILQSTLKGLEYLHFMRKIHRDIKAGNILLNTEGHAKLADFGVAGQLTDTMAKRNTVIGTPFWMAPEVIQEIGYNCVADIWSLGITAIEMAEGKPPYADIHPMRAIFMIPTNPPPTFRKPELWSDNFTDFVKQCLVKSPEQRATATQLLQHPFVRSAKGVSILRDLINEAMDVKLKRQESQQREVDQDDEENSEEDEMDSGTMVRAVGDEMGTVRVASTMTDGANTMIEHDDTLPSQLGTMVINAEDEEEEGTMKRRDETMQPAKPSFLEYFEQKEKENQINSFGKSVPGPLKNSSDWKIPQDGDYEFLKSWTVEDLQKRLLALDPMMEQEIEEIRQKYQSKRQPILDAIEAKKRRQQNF
Chain of MAP4K1 (human) (Q92918 whole entry, looked up): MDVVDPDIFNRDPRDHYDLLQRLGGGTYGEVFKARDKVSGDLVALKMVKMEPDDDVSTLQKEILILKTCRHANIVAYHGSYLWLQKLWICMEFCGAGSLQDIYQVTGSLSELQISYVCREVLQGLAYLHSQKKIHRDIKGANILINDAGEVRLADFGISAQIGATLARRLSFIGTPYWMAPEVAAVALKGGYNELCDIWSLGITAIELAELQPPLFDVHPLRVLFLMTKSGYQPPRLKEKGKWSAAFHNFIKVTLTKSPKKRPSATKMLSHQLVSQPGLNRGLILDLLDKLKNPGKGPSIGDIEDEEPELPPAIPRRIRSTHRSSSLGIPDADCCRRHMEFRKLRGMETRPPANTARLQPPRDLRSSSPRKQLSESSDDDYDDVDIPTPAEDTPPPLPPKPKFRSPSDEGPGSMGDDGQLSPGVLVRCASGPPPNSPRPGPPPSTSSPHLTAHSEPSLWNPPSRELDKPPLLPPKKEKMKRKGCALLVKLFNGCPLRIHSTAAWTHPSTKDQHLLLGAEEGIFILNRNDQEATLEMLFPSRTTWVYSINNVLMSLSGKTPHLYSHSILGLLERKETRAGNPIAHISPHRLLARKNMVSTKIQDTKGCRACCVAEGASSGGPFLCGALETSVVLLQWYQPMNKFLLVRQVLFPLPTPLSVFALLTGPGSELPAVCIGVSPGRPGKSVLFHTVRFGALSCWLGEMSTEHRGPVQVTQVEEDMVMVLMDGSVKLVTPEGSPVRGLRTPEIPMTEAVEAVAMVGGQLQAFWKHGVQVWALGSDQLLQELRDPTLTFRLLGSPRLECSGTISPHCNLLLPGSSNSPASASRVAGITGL
Chain of JAK1 JH1 catalytic (human) (P23458 whole entry, looked up): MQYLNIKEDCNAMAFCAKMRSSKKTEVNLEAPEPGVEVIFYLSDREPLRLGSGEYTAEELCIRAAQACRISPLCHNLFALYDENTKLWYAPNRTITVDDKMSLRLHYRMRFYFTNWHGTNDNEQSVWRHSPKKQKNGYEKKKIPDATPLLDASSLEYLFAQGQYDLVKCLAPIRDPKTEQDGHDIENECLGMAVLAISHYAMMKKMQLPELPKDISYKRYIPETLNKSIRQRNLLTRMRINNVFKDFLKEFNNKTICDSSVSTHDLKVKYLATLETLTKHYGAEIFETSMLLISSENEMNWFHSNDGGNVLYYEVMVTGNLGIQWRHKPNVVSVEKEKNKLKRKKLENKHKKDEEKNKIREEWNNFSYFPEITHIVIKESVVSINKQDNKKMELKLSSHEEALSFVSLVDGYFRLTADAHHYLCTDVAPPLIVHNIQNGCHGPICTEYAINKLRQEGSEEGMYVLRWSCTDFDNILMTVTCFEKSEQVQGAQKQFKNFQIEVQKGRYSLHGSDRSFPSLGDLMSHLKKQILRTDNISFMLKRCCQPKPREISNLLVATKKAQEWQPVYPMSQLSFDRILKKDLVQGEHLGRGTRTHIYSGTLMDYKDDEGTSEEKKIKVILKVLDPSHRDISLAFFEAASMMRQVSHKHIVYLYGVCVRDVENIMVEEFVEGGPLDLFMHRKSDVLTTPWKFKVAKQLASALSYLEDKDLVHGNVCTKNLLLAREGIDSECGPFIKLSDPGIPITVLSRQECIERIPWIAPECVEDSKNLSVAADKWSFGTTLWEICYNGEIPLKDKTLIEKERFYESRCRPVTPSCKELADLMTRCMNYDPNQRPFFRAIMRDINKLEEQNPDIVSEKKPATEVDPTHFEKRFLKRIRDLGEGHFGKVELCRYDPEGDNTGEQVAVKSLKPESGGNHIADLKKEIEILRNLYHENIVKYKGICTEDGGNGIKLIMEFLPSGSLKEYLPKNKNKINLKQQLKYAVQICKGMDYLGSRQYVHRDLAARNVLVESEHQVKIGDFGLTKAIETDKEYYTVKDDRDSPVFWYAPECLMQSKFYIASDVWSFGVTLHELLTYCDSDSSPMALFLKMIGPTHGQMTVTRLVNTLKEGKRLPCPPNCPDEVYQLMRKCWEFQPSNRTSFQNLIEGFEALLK
Chain of MAP3K7 (human) (O43318 whole entry, looked up): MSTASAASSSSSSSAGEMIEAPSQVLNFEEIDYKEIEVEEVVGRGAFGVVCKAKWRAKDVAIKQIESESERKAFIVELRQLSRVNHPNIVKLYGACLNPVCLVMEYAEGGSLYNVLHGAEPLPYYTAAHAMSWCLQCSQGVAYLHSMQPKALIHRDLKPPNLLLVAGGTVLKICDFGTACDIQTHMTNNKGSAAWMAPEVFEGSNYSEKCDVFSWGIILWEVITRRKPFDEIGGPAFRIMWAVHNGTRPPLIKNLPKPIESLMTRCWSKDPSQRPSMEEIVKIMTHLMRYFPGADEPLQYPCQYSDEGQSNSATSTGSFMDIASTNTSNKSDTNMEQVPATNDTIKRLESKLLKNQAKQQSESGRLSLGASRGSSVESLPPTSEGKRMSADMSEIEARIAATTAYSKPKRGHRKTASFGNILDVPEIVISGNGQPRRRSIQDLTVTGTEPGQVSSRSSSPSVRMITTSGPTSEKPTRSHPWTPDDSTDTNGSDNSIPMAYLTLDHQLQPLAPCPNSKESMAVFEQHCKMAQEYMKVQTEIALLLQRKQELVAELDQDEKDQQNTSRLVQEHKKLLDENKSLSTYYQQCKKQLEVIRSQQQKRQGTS
Chain of GSK3B (human) (P49841 whole entry, looked up): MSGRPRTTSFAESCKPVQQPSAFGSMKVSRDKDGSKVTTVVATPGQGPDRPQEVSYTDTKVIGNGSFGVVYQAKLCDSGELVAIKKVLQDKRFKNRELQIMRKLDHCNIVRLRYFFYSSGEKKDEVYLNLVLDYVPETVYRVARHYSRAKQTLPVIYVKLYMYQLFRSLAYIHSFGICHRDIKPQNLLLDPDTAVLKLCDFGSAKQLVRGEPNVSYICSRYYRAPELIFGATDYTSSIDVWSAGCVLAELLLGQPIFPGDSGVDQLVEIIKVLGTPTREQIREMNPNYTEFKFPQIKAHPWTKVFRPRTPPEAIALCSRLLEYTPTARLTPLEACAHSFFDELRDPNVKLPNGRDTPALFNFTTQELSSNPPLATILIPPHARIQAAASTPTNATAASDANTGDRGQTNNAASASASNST
Chain of FLT3 (human), P36888 [ITD] (P36888 whole entry, looked up, change not shown): as the sequence (P36888 whole entry, looked up) above

Row | Structure (SMILES) | kinase still bound, per cent of control [1] [%] | kinase still bound, per cent of control [2] [%] | kinase still bound, per cent of control [3] [%] | kinase still bound, per cent of control [4] [%] | kinase still bound, per cent of control [5] [%] | kinase still bound, per cent of control [6] [%] | kinase still bound, per cent of control [7] [%] | kinase still bound, per cent of control [8] [%] | kinase still bound, per cent of control [9] [%] | kinase still bound, per cent of control [10] [%] | kinase still bound, per cent of control [11] [%] | kinase still bound, per cent of control [12] [%] | kinase still bound, per cent of control [13] [%] | kinase still bound, per cent of control [14] [%] | kinase still bound, per cent of control [15] | kinase still bound, per cent of control [16] [%] | kinase still bound, per cent of control [17] [%] | kinase still bound, per cent of control [18] [%] | kinase still bound, per cent of control [19] [%] | kinase still bound, per cent of control [20] [%] | further results
1 | CN(C)C/C=C/C(=O)Nc1cccc(Nc2ncc3c(n2)N(C)c2ccccc2C(=O)N3C)c1 | 0.7 | 0.65 | 84 | 71 | 14 | 4.2 | 59 | 100 | 84 | 100 | 9.6 | 100 | 4 | 13 | 73% | 9.4 | 82 | 100 | 2.8 | 100 | kinase still bound, per cent of control [21]: 71%; kinase still bound, per cent of control [22]: 52%; kinase still bound, per cent of control [23]: 6.2%; kinase still bound, per cent of control [24]: 89%; kinase still bound, per cent of control [25]: 38%; kinase still bound, per cent of control [26]: 100%; kinase still bound, per cent of control [27]: 10%; kinase still bound, per cent of control [28]: 62%; kinase still bound, per cent of control [29]: 16%; kinase still bound, per cent of control [30]: 32%; kinase still bound, per cent of control [31]: 22%; kinase still bound, per cent of control [32]: 19%; kinase still bound, per cent of control [33]: 29%; kinase still bound, per cent of control [34]: 100%; kinase still bound, per cent of control [35]: 100%; kinase still bound, per cent of control [36]: 8.4%; kinase still bound, per cent of control [37]: 49%; kinase still bound, per cent of control [38]: 53%; kinase still bound, per cent of control [39]: 18%; kinase still bound, per cent of control [40]: 13%
2 | N#Cc1c(NC(=O)c2cccc3ccccc23)sc2c1CCCC2 | 91 | 96 | 84 | 100 | 100 | 100 | 85 | 98 | 69 | 100 | 82 | 83 | 100 | 100 | 94% and 87% | 97 | 66 | 100 | 78 | 93 | kinase still bound, per cent of control [21]: 76%; kinase still bound, per cent of control [22]: 78%; kinase still bound, per cent of control [23]: 82%; kinase still bound, per cent of control [24]: 72%; kinase still bound, per cent of control [25]: 89%; kinase still bound, per cent of control [26]: 4.8%; kinase still bound, per cent of control [27]: 89%; kinase still bound, per cent of control [28]: 65%; kinase still bound, per cent of control [29]: 86%; kinase still bound, per cent of control [30]: 100%; kinase still bound, per cent of control [31]: 81%; kinase still bound, per cent of control [32]: 84%; kinase still bound, per cent of control [33]: 100%; kinase still bound, per cent of control [34]: 85%; kinase still bound, per cent of control [35]: 81%; kinase still bound, per cent of control [36]: 89%; kinase still bound, per cent of control [37]: 94%; kinase still bound, per cent of control [38]: 100%; kinase still bound, per cent of control [39]: 100%; kinase still bound, per cent of control [40]: 78%
